Measured values as given in ChEMBL document CHEMBL4507276 (2021).

Columns and labels:
[1] = target: Interleukin-1 receptor-associated kinase 3 (Homo sapiens) (UniProt Q9Y616); conditions: Compound concentration 1000.0 nM
[2] = tested on: Proto-oncogene tyrosine-protein kinase receptor Ret (Homo sapiens), P07949 [V804M]; conditions: Compound concentration 1000.0 nM
[3] = target: Delta-type opioid receptor (Homo sapiens) (UniProt P41143); conditions: Compound concentration 10.0 uM
[4] = target: Epithelial discoidin domain-containing receptor 1 (Homo sapiens) (UniProt Q08345); conditions: Compound concentration 1000.0 nM
[5] = target: T1, cGMP-dependent protein kinase 1 (Homo sapiens) (UniProt Q13976); conditions: Compound concentration 1000.0 nM
T1 sequence (whole entry): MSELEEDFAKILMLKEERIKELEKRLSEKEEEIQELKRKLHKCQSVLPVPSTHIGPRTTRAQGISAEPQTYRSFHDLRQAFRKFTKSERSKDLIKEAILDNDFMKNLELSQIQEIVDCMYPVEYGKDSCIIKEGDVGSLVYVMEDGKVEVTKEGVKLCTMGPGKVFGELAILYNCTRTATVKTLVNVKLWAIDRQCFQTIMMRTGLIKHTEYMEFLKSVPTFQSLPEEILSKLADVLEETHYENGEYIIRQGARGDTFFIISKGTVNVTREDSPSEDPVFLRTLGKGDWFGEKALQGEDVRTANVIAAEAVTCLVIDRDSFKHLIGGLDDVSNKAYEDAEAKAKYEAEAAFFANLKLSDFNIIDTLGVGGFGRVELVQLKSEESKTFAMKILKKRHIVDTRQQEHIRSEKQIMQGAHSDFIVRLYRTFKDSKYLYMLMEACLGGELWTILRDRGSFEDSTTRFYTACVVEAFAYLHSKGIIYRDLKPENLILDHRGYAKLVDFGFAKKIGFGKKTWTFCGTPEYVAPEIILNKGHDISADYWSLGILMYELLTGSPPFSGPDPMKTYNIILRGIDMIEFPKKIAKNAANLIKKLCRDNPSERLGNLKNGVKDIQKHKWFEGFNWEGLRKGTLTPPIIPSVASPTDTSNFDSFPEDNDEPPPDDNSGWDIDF

[6] = target: Mitogen-activated protein kinase kinase kinase 9 (Homo sapiens) (UniProt P80192); conditions: Compound concentration 1000.0 nM
[7] = target: Mitogen-activated protein kinase 15 (Homo sapiens) (UniProt Q8TD08); conditions: Compound concentration 1000.0 nM
[8] = target: Cyclin-dependent kinase 8 (Homo sapiens) (UniProt P49336); conditions: Compound concentration 1000.0 nM
[9] = tested on: Phosphatidylinositol 4,5-bisphosphate 3-kinase catalytic subunit alpha isoform (Homo sapiens), P42336 [H1047Y]; conditions: Compound concentration 1000.0 nM
[10] = target: Serine/threonine-protein kinase 38-like (Homo sapiens) (UniProt Q9Y2H1); conditions: Compound concentration 1000.0 nM
[11] = target: Ribosomal protein S6 kinase beta-1 (Homo sapiens) (UniProt P23443); conditions: Compound concentration 1000.0 nM
[12] = tested on: Epidermal growth factor receptor (Homo sapiens), P00533 [G719C]; conditions: Compound concentration 1000.0 nM
[13] = target: Dual specificity protein kinase CLK1 (Homo sapiens) (UniProt P49759); conditions: Compound concentration 1000.0 nM
[14] = target: Serine/threonine-protein kinase 16 (Homo sapiens) (UniProt O75716); conditions: Compound concentration 1000.0 nM
[15] = target: D(1A) dopamine receptor (Homo sapiens) (UniProt P21728); conditions: Compound concentration 10.0 uM
[16] = target: Cyclin-dependent kinase 4 (Homo sapiens) (UniProt P11802); conditions: Compound concentration 1000.0 nM
[17] = target: Ribosomal protein S6 kinase alpha-3 (Homo sapiens) (UniProt P51812); conditions: Compound concentration 1000.0 nM
[18] = target: SRSF protein kinase 2 (Homo sapiens) (UniProt P78362); conditions: Compound concentration 1000.0 nM
[19] = target: Bone morphogenetic protein receptor type-2 (Homo sapiens) (UniProt Q13873); conditions: Compound concentration 1000.0 nM
[20] = target: Mitogen-activated protein kinase 1 (Homo sapiens) (UniProt P28482); conditions: Compound concentration 1000.0 nM
[21] = target: RAC-gamma serine/threonine-protein kinase (Homo sapiens) (UniProt Q9Y243); conditions: Compound concentration 1000.0 nM
[22] = target: Tyrosine-protein kinase Yes (Homo sapiens) (UniProt P07947); conditions: Compound concentration 1000.0 nM
[23] = target: NUAK family SNF1-like kinase 2 (Homo sapiens) (UniProt Q9H093); conditions: Compound concentration 1000.0 nM
[24] = target: Serine/threonine-protein kinase ULK1 (Homo sapiens) (UniProt O75385); conditions: Compound concentration 1000.0 nM
[25] = target: Serine/threonine-protein kinase WNK1 (Homo sapiens) (UniProt Q9H4A3); conditions: Compound concentration 1000.0 nM
[26] = target: T2, Dual specificity mitogen-activated protein kinase kinase 3 (Homo sapiens) (UniProt P46734); conditions: Compound concentration 1000.0 nM
T2 sequence (whole entry): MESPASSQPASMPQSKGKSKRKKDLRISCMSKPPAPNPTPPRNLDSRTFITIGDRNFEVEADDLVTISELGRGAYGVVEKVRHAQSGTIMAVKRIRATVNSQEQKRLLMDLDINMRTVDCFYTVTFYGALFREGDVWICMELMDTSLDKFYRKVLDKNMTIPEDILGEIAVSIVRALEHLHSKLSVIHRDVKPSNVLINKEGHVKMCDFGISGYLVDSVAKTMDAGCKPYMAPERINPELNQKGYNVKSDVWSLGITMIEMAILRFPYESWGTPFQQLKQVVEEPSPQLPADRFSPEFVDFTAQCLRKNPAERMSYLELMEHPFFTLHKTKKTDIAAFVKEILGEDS

[27] = tested on: eIF-2-alpha kinase GCN2 (Homo sapiens), Q9P2K8 [S808G]; conditions: Compound concentration 1000.0 nM

Sequence of Serine/threonine-protein kinase 38-like (Homo sapiens) (Q9Y2H1 2-464 limits assumed): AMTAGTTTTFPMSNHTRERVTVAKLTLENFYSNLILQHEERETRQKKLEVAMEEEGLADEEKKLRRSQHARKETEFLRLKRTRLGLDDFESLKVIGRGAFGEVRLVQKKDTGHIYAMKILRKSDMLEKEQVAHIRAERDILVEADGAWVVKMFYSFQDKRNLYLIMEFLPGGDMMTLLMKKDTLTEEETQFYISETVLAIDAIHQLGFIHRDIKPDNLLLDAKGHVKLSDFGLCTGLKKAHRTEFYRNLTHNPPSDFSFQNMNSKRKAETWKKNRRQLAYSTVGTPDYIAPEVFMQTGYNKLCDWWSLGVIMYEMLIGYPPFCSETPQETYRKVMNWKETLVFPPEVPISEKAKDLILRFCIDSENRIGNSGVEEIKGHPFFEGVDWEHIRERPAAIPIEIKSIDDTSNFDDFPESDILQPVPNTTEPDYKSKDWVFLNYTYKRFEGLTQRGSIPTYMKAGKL
Sequence of Ribosomal protein S6 kinase alpha-3 (Homo sapiens) (P51812 whole entry): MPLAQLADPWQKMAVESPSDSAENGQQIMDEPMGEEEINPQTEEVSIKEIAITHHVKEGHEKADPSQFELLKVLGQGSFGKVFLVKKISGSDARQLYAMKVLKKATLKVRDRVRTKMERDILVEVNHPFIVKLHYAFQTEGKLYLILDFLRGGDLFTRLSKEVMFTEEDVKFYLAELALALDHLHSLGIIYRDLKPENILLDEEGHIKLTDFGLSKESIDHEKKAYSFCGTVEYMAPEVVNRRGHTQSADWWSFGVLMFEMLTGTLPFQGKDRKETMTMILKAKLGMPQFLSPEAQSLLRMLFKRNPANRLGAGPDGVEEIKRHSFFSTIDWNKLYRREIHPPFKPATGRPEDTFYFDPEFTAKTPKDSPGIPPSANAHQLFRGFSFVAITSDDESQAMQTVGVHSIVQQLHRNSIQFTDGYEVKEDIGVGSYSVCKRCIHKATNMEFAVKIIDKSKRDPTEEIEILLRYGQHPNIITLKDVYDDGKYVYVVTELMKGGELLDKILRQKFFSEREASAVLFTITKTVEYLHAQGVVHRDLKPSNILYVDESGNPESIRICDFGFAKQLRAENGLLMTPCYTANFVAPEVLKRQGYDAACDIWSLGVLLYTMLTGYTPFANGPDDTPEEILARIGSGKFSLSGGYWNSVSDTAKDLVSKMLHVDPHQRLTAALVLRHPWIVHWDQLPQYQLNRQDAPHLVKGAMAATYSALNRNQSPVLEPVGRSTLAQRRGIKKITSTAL
Sequence of Mitogen-activated protein kinase kinase kinase 9 (Homo sapiens) (P80192 whole entry, looked up): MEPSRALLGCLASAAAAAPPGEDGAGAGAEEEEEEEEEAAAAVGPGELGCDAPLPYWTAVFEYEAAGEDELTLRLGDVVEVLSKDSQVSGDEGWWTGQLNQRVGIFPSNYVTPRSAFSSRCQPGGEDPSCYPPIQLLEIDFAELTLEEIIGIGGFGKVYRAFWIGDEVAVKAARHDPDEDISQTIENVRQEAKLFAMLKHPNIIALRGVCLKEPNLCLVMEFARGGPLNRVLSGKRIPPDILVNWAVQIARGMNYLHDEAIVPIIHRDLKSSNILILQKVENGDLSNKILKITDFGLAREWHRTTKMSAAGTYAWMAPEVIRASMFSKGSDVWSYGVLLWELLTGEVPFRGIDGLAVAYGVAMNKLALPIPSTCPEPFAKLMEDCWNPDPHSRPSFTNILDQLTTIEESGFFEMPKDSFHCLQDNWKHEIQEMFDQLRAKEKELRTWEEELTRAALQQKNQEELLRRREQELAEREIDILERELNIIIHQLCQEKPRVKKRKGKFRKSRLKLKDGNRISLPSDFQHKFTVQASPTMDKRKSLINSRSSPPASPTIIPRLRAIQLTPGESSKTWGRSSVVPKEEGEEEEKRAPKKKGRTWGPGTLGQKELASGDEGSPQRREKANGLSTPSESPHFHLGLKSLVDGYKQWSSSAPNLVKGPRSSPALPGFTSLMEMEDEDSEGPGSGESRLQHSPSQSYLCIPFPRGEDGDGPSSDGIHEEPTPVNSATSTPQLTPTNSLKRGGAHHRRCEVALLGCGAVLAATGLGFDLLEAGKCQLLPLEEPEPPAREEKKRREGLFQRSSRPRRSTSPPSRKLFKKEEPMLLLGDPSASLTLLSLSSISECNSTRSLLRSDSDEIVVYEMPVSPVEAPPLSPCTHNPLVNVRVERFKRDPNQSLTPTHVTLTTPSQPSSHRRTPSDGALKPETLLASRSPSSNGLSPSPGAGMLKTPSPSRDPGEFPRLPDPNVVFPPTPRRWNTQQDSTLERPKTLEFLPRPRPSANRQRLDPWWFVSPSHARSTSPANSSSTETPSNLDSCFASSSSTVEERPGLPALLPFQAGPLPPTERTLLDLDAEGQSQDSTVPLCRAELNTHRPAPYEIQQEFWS
Sequence of Cyclin-dependent kinase 8 (Homo sapiens) (P49336 whole entry, canonical isoform): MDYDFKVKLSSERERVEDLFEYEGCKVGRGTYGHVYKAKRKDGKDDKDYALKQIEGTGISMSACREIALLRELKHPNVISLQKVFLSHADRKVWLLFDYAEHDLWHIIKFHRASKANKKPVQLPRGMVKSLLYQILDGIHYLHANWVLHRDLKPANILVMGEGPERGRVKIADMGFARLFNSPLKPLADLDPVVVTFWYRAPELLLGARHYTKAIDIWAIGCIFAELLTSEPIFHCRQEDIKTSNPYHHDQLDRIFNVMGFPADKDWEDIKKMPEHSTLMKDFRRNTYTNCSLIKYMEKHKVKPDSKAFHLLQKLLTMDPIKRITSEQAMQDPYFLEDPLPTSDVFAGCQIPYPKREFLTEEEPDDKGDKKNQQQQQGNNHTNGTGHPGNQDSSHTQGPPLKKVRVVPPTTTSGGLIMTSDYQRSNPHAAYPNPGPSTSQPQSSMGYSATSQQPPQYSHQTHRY
Sequence of Cyclin-dependent kinase 4 (Homo sapiens) (P11802 whole entry): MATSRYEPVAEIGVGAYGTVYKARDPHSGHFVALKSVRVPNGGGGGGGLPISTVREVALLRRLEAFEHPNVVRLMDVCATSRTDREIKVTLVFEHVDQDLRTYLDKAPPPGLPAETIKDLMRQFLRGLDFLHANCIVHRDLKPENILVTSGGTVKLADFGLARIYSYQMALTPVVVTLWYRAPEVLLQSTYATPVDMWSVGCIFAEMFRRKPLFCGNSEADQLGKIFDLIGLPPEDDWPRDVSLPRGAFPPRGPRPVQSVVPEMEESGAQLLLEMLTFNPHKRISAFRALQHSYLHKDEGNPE
Sequence of Epithelial discoidin domain-containing receptor 1 (Homo sapiens) (Q08345 whole entry, the tested form may be a part): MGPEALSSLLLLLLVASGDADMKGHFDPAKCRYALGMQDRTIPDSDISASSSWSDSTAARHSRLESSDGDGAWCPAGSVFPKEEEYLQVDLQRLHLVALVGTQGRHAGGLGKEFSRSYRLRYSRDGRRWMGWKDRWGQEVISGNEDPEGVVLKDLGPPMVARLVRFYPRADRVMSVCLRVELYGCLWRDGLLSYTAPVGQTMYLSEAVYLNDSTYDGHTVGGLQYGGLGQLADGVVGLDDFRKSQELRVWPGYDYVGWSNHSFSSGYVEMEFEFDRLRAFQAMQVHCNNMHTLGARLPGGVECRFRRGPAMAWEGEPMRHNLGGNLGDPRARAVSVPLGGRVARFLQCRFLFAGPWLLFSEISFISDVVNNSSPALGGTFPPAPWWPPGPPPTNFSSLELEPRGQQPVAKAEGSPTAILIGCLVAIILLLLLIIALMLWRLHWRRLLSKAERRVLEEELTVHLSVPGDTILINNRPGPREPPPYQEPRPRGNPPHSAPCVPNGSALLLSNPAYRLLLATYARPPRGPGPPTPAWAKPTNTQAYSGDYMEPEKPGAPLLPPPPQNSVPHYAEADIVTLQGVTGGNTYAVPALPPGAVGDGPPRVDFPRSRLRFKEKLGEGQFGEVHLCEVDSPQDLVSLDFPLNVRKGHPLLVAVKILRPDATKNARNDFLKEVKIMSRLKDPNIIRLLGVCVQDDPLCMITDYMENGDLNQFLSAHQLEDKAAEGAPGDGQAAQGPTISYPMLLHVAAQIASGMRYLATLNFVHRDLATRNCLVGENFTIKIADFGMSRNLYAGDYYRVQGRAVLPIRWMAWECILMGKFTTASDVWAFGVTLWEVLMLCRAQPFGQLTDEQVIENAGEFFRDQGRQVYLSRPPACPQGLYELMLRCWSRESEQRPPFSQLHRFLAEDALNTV
Sequence of Phosphatidylinositol 4,5-bisphosphate 3-kinase catalytic subunit alpha isoform (Homo sapiens), P42336 [H1047Y] (P42336 whole entry H1047Y, canonical isoform): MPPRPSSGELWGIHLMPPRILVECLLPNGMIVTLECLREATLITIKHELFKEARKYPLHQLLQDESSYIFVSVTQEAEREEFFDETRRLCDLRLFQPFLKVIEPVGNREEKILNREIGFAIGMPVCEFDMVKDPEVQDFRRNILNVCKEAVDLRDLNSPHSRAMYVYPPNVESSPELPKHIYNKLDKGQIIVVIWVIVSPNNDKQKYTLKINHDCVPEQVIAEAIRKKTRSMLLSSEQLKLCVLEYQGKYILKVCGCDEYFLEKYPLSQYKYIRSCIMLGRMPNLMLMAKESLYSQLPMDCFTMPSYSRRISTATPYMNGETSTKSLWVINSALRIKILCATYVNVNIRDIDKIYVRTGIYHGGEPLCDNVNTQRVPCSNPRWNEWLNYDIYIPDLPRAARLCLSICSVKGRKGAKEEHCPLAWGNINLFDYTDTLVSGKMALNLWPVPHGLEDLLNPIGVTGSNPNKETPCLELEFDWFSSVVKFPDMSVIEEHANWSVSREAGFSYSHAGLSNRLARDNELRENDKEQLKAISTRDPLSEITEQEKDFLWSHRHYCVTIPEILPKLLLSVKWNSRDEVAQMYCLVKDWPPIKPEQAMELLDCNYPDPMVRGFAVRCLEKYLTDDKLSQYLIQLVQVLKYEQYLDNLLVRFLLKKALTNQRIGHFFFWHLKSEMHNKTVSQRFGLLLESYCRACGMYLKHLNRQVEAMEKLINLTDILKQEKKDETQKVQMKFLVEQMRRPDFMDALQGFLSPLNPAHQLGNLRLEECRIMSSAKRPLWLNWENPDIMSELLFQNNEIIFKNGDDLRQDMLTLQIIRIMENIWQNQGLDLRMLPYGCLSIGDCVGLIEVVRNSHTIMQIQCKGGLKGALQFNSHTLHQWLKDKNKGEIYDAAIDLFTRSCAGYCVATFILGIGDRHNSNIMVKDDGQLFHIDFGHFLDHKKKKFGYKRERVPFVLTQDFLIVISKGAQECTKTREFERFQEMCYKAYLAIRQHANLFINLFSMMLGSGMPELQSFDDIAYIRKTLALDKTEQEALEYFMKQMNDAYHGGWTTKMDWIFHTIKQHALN

CN(C)C(=O)Cn1cc(-c2nc(C3(c4ccc(-c5cnc(N)nc5)cc4)CC3)no2)cn1 [BI 0153]
inactive: residual activity [1] 96% | residual activity [2] 100% | inhibition [3] -5.53% | residual activity [4] 86% | residual activity [5] 89% | residual activity [6] 91% | residual activity [7] 96% | residual activity [8] 100% | residual activity [9] 94% | residual activity [10] 81% | residual activity [11] 91% | residual activity [12] 100% | residual activity [13] 100% | residual activity [14] 100% | inhibition [15] -6.69% | residual activity [16] 67% | residual activity [17] 85% | residual activity [18] 91% | residual activity [19] 93% | residual activity [20] 81% | residual activity [21] 87% | residual activity [22] 87% | residual activity [23] 87% | residual activity [24] 75% | residual activity [25] 97% | residual activity [26] 71% | residual activity [27] 83%

CN(C)C(=O)Cn1cc(-c2nc([C@@](C)(c3ccc(-c4cnc(N)nc4)cc3)C3CC3)no2)cn1 [BI 665915]
inactive: residual activity [1] 100% | residual activity [2] 97% | inhibition [3] -7.13% | residual activity [4] 90% | residual activity [5] 100% | residual activity [6] 100% | residual activity [7] 91% | residual activity [8] 89% | residual activity [9] 87% | residual activity [10] 91% | residual activity [11] 83% | residual activity [12] 85% | residual activity [13] 93% | residual activity [14] 100% | inhibition [15] 4.55% | residual activity [16] 94% | residual activity [17] 100% | residual activity [18] 100% | residual activity [19] 94% | residual activity [20] 100% | residual activity [21] 100% | residual activity [22] 94% | residual activity [23] 83% | residual activity [24] 77% | residual activity [25] 94% | residual activity [26] 83% | residual activity [27] 100%
